Patent US12692262B2, “Substituted ureas as orexin receptor agonists” (Merck Sharp & Dohme LLC, priority 2020, dated 2026)

Target: T1, human OX2R (Homo sapiens, UniProt O43614)
T1 construct: expressed in transfected cells; host or cells: CHO (Chinese hamster ovary) cells grown under G418 selection
T1 sequence (O43614 1-444): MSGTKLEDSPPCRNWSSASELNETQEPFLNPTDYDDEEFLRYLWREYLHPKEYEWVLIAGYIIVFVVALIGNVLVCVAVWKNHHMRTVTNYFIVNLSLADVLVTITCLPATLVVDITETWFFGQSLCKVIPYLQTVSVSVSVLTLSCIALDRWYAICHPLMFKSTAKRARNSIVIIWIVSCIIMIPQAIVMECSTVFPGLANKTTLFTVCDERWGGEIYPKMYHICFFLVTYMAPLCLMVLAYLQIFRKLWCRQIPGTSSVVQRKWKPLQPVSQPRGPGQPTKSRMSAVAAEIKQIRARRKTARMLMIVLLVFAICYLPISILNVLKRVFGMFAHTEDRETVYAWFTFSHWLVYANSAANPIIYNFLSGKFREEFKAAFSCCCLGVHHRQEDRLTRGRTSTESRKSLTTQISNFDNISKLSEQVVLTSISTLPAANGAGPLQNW
Assay: IPOne (IP-1 accumulation) assay in CHO cells expressing human OX2R
Format: cell-based
Conditions: for EC50: CHO cells expressing human OX2R, IP-One assay, 2 h incubation, four parameter logistic fit, read-out: OX2R Potency, EC50; for % of maximum agonist effect (relative to Orexin A): percent effect vs mean max effect of a reference compound at 1 uM (100% activity vs Orexin A), human OX2R
Outline: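 Agonist EC50 values come from the inflection point of four-parameter logistic curves. Read-out is IP-1 accumulation detected with lysis buffer plus D2 and AB-cryptate reagents (HTRF), in CHO cells engineered to express human OX2R.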

| Structure (SMILES) | EC50 | % of maximum agonist effect (relative to Orexin A) |
| --- | --- | --- |
| CCOC1(CC(NC(=O)N(CC)[C@H](C)c2cccc(-c3cn4ccnc4c(OC)n3)c2)C(F)(F)F)CC1 (stereo partly drawn) [Example 2-57, 3-(3-(1-ethoxycyclopropyl)-1,1,1-trifluoropropan-2-yl)-1-ethyl-1-((R)-1-(3-(8-methoxyimidazo[1,2-a]pyrazin-6-yl)phenyl)ethyl)urea] | 15.3 nM | 96.2% |
| CCN(C(=O)N[C@@H](CCC(F)(F)F)C(F)(F)F)[C@@H](c1cc(-c2cn3cc(C)nc3c(OC)n2)c(OC)cn1)C(F)(F)F [Example 10-9, 1-ethyl-3-((S)-1,1,1,5,5,5-hexafluoropentan-2-yl)-1-((S)-2,2,2-trifluoro-1-(5-methoxy-4-(8-methoxy-2-methylimidazo[1,2-a]pyrazin-6-yl)pyridin-2-yl)ethyl)urea] | 2.7 nM | 102.5% |
| CC[C@H](CCC(F)(F)F)NC(=O)N(CC)[C@H](C)c1cccc(-c2cn3ccnc3cc2Cl)c1 [Example 8-15, 1-((R)-1-(3-(7-chloroimidazo[1,2-a]pyridin-6-yl)phenyl)ethyl)-1-ethyl-3-((R)-6,6,6-trifluorohexan-3-yl)urea] | 188 nM | 94.1% |
| CCN(C(=O)NC(C1CN(C)C1)C(F)(F)F)[C@H](C)c1cccc(-c2cn3ccnc3c(OC)n2)c1 (stereo partly drawn) [Example 1-15, 1-ethyl-1-((R)-1-(3-(8-methoxyimidazo[1,2-a]pyrazin-6-yl)phenyl)ethyl)-3-(2,2,2-trifluoro-1-(1-methylazetidin-3-yl)ethyl)urea] | 271 nM | 99.7% |
| CCN(C(=O)N[C@@H](CCC(F)F)C(F)F)[C@@H](c1cc(-c2cn3cc(C)nc3c(OC)n2)c(OC)cn1)C(F)(F)F [Example 4-2, 1-ethyl-3-((S)-1,1,5,5-tetrafluoropentan-2-yl)-1-((S)-2,2,2-trifluoro-1-(5-methoxy-4-(8-methoxy-2-methylimidazo[1,2-a]pyrazin-6-yl)pyridin-2-yl)ethyl)urea] | 5.9 nM | 99.9% |
| CCN(C(=O)N[C@@H](CCC(F)F)C1CC1)[C@@H](c1cc(-c2cn3cc(C)nc3c(OC)n2)c(OC)cn1)C(F)(F)F [Example 6-7, 3-((S)-1-cyclopropyl-4,4-difluorobutyl)-1-ethyl-1-((S)-2,2,2-trifluoro-1-(5-methoxy-4-(8-methoxy-2-methylimidazo[1,2-a]pyrazin-6-yl)pyridin-2-yl)ethyl)urea] | 8.5 nM | 100.9% |
| CCN(C(=O)NC(C(F)F)C1CC1)[C@@H](c1cc(-c2cn3ccnc3c(OC)n2)c(OC)cn1)C(F)(F)F (stereo partly drawn) [Example 2-7, 3-(1-cyclopropyl-2,2-difluoroethyl)-1-ethyl-1-((S)-2,2,2-trifluoro-1-(5-methoxy-4-(8-methoxyimidazo[1,2-a]pyrazin-6-yl)pyridin-2-yl)ethyl)urea] | 12.5 nM | 100.1% |
| CC[C@H](CCC(F)(F)F)NC(=O)N(CC)[C@H](C)c1cccc(-c2cc(Cl)n3nccc3c2)c1 [Example 7-5, 1-((R)-1-(3-(7-chloropyrazolo[1,5-a]pyridin-5-yl)phenyl)ethyl)-1-ethyl-3-((R)-6,6,6-trifluorohexan-3-yl)urea] | 851 nM | 93.7% |
| CCN(C(=O)NC(C1CC(F)(F)CC(C)(C)O1)C(F)(F)F)[C@@H](c1cc(-c2cn3cc(C)nc3c(OC)n2)c(OC)cn1)C(F)(F)F (stereo partly drawn) [Example 2-4, 3-(1-(4,4-difluoro-6,6-dimethyltetrahydro-2H-pyran-2-yl)-2,2,2-trifluoroethyl)-1-ethyl-1-((S)-2,2,2-trifluoro-1-(5-methoxy-4-(8-methoxy-2-methylimidazo[1,2-a]pyrazin-6-yl)pyridin-2-yl)ethyl)urea] | 4.3 nM | 100.6% |
| CC[C@H](CCC(F)(F)F)NC(=O)N(CC)[C@H](C)c1ccc(Cl)c(-c2cc(OC)c3nccn3c2)c1 [Example 14-2, 1-((R)-1-(4-chloro-3-(8-methoxyimidazo[1,2-a]pyridin-6-yl)phenyl)ethyl)-1-ethyl-3-((R)-6,6,6-trifluorohexan-3-yl)urea] | 2.6 nM | 96.0% |
| CCN(C(=O)NC(C1CC(F)(F)CCN1C)C(F)(F)F)[C@H](C)c1cccc(-c2cc(OC)n3nccc3c2)c1 (stereo partly drawn) [Example 2-53, 3-(1-(4,4-difluoro-1-methylpiperidin-2-yl)-2,2,2-trifluoroethyl)-1-ethyl-1-((R)-1-(3-(7-methoxypyrazolo[1,5-a]pyridin-5-yl)phenyl)ethyl)urea] | 1.5 nM | 101.6% |
| CCN(C(=O)N[C@@H](CCC(F)(F)F)C(F)(F)F)[C@H](C)c1cc(-c2cc3ccnn3c(OC)n2)c(OC)cn1 [Example 2-51, 1-ethyl-3-((S)-1,1,1,5,5,5-hexafluoropentan-2-yl)-1-((R)-1-(5-methoxy-4-(7-methoxypyrazolo[1,5-c]pyrimidin-5-yl)pyridin-2-yl)ethyl)urea] | 1 nM | 98.7% |
| CC[C@H](CCC(F)(F)F)NC(=O)N(CC)[C@H](C)c1cc2c(c(-c3ccc4nccn4c3)c1)OCC2 [Example 11-1, 1-ethyl-1-((R)-1-(7-(imidazo[1,2-a]pyridin-6-yl)-2,3-dihydrobenzofuran-5-yl)ethyl)-3-((R)-6,6,6-trifluorohexan-3-yl)urea] | 5.6 nM | 97.4% |

The next lines start with the values.

| EC50 | % of maximum agonist effect (relative to Orexin A) | Structure (SMILES) |
| --- | --- | --- |
| 3.6 nM | 101.6% | CCN(C(=O)N[C@@H](CCC(F)F)C(F)(F)F)[C@@H](c1cc(-c2cn3cc(C)nc3c(OC)n2)c(OC)cn1)C(F)(F)F [Example 3-3, 1-ethyl-3-((S)-1,1,1,5,5-pentafluoropentan-2-yl)-1-((S)-2,2,2-trifluoro-1-(5-methoxy-4-(8-methoxy-2-methylimidazo[1,2-a]pyrazin-6-yl)pyridin-2-yl)ethyl)urea] |
| 27.8 nM | 100.5% | CCN(C(=O)N[C@@H](CCC(F)=C(F)F)C(F)(F)F)[C@@H](c1cc(-c2cn3cc(C)nc3c(OC)n2)c(OC)cn1)C(F)(F)F [Example 3-4, 1-ethyl-3-((S)-1,1,1,5,6,6-hexafluorohex-5-en-2-yl)-1-((S)-2,2,2-trifluoro-1-(5-methoxy-4-(8-methoxy-2-methylimidazo[1,2-a]pyrazin-6-yl)pyridin-2-yl)ethyl)urea] |
| 4.8 nM | 100.6% | CCN(C(=O)N[C@@H](CC(OC)C(F)(F)F)C(F)(F)F)[C@@H](c1cc(-c2cn3cc(C)nc3c(OC)n2)c(OC)cn1)C(F)(F)F (stereo partly drawn) [Example 2-44, 1-ethyl-3-((2S)-1,1,1,5,5,5-hexafluoro-4-methoxypentan-2-yl)-1-((S)-2,2,2-trifluoro-1-(5-methoxy-4-(8-methoxy-2-methylimidazo[1,2-a]pyrazin-6-yl)pyridin-2-yl)ethyl)urea] |
| 8.7 nM | 100.1% | CCN(C(=O)N[C@@H](CCC(F)(F)F)C(F)(F)F)C(c1cc(-c2cn3ccnc3c(OC)n2)c2nccn2c1)C(F)(F)F (stereo partly drawn) [Example 2-14, 1-ethyl-3-((S)-1,1,1,5,5,5-hexafluoropentan-2-yl)-1-(2,2,2-trifluoro-1-(8-(8-methoxyimidazo[1,2-a]pyrazin-6-yl)imidazo[1,2-a]pyridin-6-yl)ethyl)urea] |
| 70.1 nM | 100.5% | CCN(C(=O)N[C@@H](CCC(F)(F)F)C(F)(F)F)C(c1cc(-c2cn3c(C#N)cnc3c(OC)n2)c(OC)cn1)C(F)(F)F (stereo partly drawn) [Example 10-12, 1-(1-(4-(3-cyano-8-methoxyimidazo[1,2-a]pyrazin-6-yl)-5-methoxypyridin-2-yl)-2,2,2-trifluoroethyl)-1-ethyl-3-((S)-1,1,1,5,5,5-hexafluoropentan-2-yl)urea] |
| 88.8 nM | 100.5% | CCN(C(=O)N[C@@H](CCC(F)(F)F)C(F)(F)F)C(c1cc(-c2cn3ccnc3c(OC)n2)cnc1OC)C(F)(F)F (stereo partly drawn) [Example 10-17, 1-ethyl-3-((S)-1,1,1,5,5,5-hexafluoropentan-2-yl)-1-(2,2,2-trifluoro-1-(2-methoxy-5-(8-methoxyimidazo[1,2-a]pyrazin-6-yl)pyridin-3-yl)ethyl)urea] |
| 35.1 nM | 99.0% | CCN(C(=O)N[C@]1(C)C[C@H]1C(F)(F)F)[C@@H](c1cc(-c2cn3ccnc3c(OC)n2)c(OC)cn1)C(F)(F)F [Example 2-31, 1-ethyl-3-((1R,2R)-1-methyl-2-(trifluoromethyl)cyclopropyl)-1-((S)-2,2,2-trifluoro-1-(5-methoxy-4-(8-methoxyimidazo[1,2-a]pyrazin-6-yl)pyridin-2-yl)ethyl)urea] |
| 5.5 nM | 100.5% | CCc1nc(-c2cc([C@H](N(CC)C(=O)N[C@@H](CCC(F)(F)F)C(F)(F)F)C(F)(F)F)ncc2OC)cn2ccnc12 [Example 9-2, 1-ethyl-1-((S)-1-(4-(8-ethylimidazo[1,2-a]pyrazin-6-yl)-5-methoxypyridin-2-yl)-2,2,2-trifluoroethyl)-3-((S)-1,1,1,5,5,5-hexafluoropentan-2-yl)urea] |
